Key:
Format in all cases: functional
[1] = test system: Leptinotarsa decemlineata; assay: Insecticidal activity against third-instar larval stage of Leptinotarsa decemlineata infested potato leaves assessed as mortality at 10 ul after 96 hr (reference value: 3.3 +/- 3.3%)
[2] = test system: Leptinotarsa decemlineata; assay: Insecticidal activity against second-instar larval stage of Leptinotarsa decemlineata infested potato leaves assessed as mortality at 20 ul after 48 hr (reference value: 3.3 +/- 3.3%)
[3] = test system: Leptinotarsa decemlineata; assay: Insecticidal activity against adult Leptinotarsa decemlineata infested potato leaves assessed as mortality at 10 ul after 48 hr relative to control
[4] = test system: Leptinotarsa decemlineata; assay: Insecticidal activity against third-instar larval stage of Leptinotarsa decemlineata infested potato leaves assessed as mortality at 20 ul after 24 hr relative to control
[5] = test system: Leptinotarsa decemlineata; assay: Insecticidal activity against first-instar larval stage of Leptinotarsa decemlineata infested potato leaves assessed as mortality at 20 ul after 12 hr relative to control
[6] = test system: Leptinotarsa decemlineata; assay: Insecticidal activity against third-instar larval stage of Leptinotarsa decemlineata infested potato leaves assessed as mortality at 10 ul after 48 hr (reference value: 3.3 +/- 3.3%)
[7] = test system: Leptinotarsa decemlineata; assay: Insecticidal activity against second-instar larval stage of Leptinotarsa decemlineata infested potato leaves assessed as mortality at 20 ul after 96 hr (reference value: 3.3 +/- 3.3%)
[8] = test system: Leptinotarsa decemlineata; assay: Insecticidal activity against first-instar larval stage of Leptinotarsa decemlineata infested potato leaves assessed as mortality at 10 ul after 48 hr relative to control
[9] = test system: Leptinotarsa decemlineata; assay: Insecticidal activity against adult Leptinotarsa decemlineata infested potato leaves assessed as mortality at 20 ul after 12 hr relative to control
[10] = test system: Leptinotarsa decemlineata; assay: Insecticidal activity against adult Leptinotarsa decemlineata infested potato leaves assessed as mortality at 20 ul after 48 hr relative to control
[11] = test system: Leptinotarsa decemlineata; assay: Insecticidal activity against second-instar larval stage of Leptinotarsa decemlineata infested potato leaves assessed as mortality at 10 ul after 96 hr (reference value: 3.3 +/- 3.3%)
[12] = test system: Leptinotarsa decemlineata; assay: Insecticidal activity against first-instar larval stage of Leptinotarsa decemlineata infested potato leaves assessed as mortality at 20 ul after 24 hr relative to control
[13] = test system: Leptinotarsa decemlineata; assay: Insecticidal activity against first-instar larval stage of Leptinotarsa decemlineata infested potato leaves assessed as mortality at 10 ul after 96 hr relative to control
[14] = test system: Leptinotarsa decemlineata; assay: Insecticidal activity against third-instar larval stage of Leptinotarsa decemlineata infested potato leaves assessed as mortality at 20 ul after 96 hr (reference value: 3.3 +/- 3.3%)
[15] = test system: Leptinotarsa decemlineata; assay: Insecticidal activity against first-instar larval stage of Leptinotarsa decemlineata infested potato leaves assessed as mortality at 10 ul after 24 hr relative to control
[16] = test system: Leptinotarsa decemlineata; assay: Insecticidal activity against adult Leptinotarsa decemlineata infested potato leaves assessed as mortality at 20 ul after 24 hr relative to control
[17] = test system: Leptinotarsa decemlineata; assay: Insecticidal activity against third-instar larval stage of Leptinotarsa decemlineata infested potato leaves assessed as mortality at 10 ul after 24 hr relative to control
[18] = test system: Leptinotarsa decemlineata; assay: Insecticidal activity against second-instar larval stage of Leptinotarsa decemlineata infested potato leaves assessed as mortality at 20 ul after 12 hr relative to control
[19] = test system: Leptinotarsa decemlineata; assay: Insecticidal activity against second-instar larval stage of Leptinotarsa decemlineata infested potato leaves assessed as mortality at 10 ul after 12 hr relative to control
[20] = test system: Leptinotarsa decemlineata; assay: Insecticidal activity against first-instar larval stage of Leptinotarsa decemlineata infested potato leaves assessed as mortality at 10 ul after 12 hr relative to control
[21] = test system: Leptinotarsa decemlineata; assay: Insecticidal activity against third-instar larval stage of Leptinotarsa decemlineata infested potato leaves assessed as mortality at 10 ul after 12 hr relative to control
[22] = test system: Leptinotarsa decemlineata; assay: Insecticidal activity against adult Leptinotarsa decemlineata infested potato leaves assessed as mortality at 20 ul after 96 hr relative to control
[23] = test system: Leptinotarsa decemlineata; assay: Insecticidal activity against second-instar larval stage of Leptinotarsa decemlineata infested potato leaves assessed as mortality at 20 ul after 24 hr (reference value: 3.3 +/- 3.3%)
[24] = test system: Leptinotarsa decemlineata; assay: Insecticidal activity against adult Leptinotarsa decemlineata infested potato leaves assessed as mortality at 10 ul after 24 hr relative to control
[25] = test system: Leptinotarsa decemlineata; assay: Insecticidal activity against third-instar larval stage of Leptinotarsa decemlineata infested potato leaves assessed as mortality at 20 ul after 12 hr relative to control
[26] = test system: Leptinotarsa decemlineata; assay: Insecticidal activity against adult Leptinotarsa decemlineata infested potato leaves assessed as mortality at 10 ul after 96 hr relative to control
[27] = test system: Leptinotarsa decemlineata; assay: Insecticidal activity against third-instar larval stage of Leptinotarsa decemlineata infested potato leaves assessed as mortality at 20 ul after 48 hr (reference value: 3.3 +/- 3.3%)
[28] = test system: Leptinotarsa decemlineata; assay: Insecticidal activity against adult Leptinotarsa decemlineata infested potato leaves assessed as mortality at 10 ul after 12 hr relative to control
[29] = test system: Leptinotarsa decemlineata; assay: Insecticidal activity against first-instar larval stage of Leptinotarsa decemlineata infested potato leaves assessed as mortality at 20 ul after 48 hr relative to control
[30] = test system: Leptinotarsa decemlineata; assay: Insecticidal activity against second-instar larval stage of Leptinotarsa decemlineata infested potato leaves assessed as mortality at 10 ul after 48 hr (reference value: 3.3 +/- 3.3%)
[31] = test system: Leptinotarsa decemlineata; assay: Insecticidal activity against second-instar larval stage of Leptinotarsa decemlineata infested potato leaves assessed as mortality at 10 ul after 24 hr (reference value: 3.3 +/- 3.3%)
[32] = test system: Leptinotarsa decemlineata; assay: Insecticidal activity against first-instar larval stage of Leptinotarsa decemlineata infested potato leaves assessed as mortality at 20 ul after 96 hr relative to control

Row | Structure (SMILES) | mortality [1] [%] | mortality [2] [%] | mortality [3] [%] | mortality [4] [%] | mortality [5] [%] | mortality [6] [%] | mortality [7] [%] | mortality [8] [%] | mortality [9] [%] | mortality [10] [%] | mortality [11] [%] | mortality [12] [%] | mortality [13] [%] | mortality [14] [%] | mortality [15] [%] | mortality [16] [%] | mortality [17] [%] | mortality [18] [%] | mortality [19] [%] | mortality [20] [%] | further results
1 | C=C1CCC2CC1C2(C)C (stereo not drawn) [BETA-PINENE] | 100 | 80 | 100 | 100 | 66.7 | 100 | 86.7 | 96.7 | 80 | 100 | 100 | 100 | 100 | 100 | 66.7 | 96.7 | 83.3 | 20 | 56.7 | 43.3 | mortality [21]: 80%; mortality [22]: 100%; mortality [23]: 70%; mortality [24]: 100%; mortality [25]: 100%; mortality [26]: 100%; mortality [27]: 100%; mortality [28]: 100%; mortality [29]: 100%; mortality [30]: 90%; mortality [31]: 76.7%; mortality [32]: 100%
2 | CC1=CCC2C(C1)C2(C)C (stereo not given) [CARENE] | 100 | 93.3 | 80 | 100 | 56.7 | 100 | 93.3 | 86.7 | 50 | 86.7 | 100 | 70 | 100 | 100 | 63.3 | 80 | 100 | 76.7 | 46.7 | 36.7 | mortality [21]: 100%; mortality [22]: 86.7%; mortality [23]: 86.7%; mortality [24]: 73.3%; mortality [25]: 100%; mortality [26]: 80%; mortality [27]: 100%; mortality [28]: 36.7%; mortality [29]: 86.7%; mortality [30]: 100%; mortality [31]: 73.3%; mortality [32]: 86.7%
3 | C=C(C)C1CC=C(C)C(=O)C1 (stereo not given) [CARVONE] | 16.7 | 86.7 | 66.7 | 86.7 | 10 | 13.3 | 90 | 43.3 | 3.3 | 100 | 63.3 | 30 | 63.3 | 90 | 43.3 | 36.7 | 13.3 | 53.3 | 33.3 | 16.7 | mortality [21]: 6.7%; mortality [22]: 100%; mortality [23]: 83.3%; mortality [24]: 26.7%; mortality [25]: 23.3%; mortality [26]: 93.3%; mortality [27]: 90%; mortality [28]: 0%; mortality [29]: 43.3%; mortality [30]: 63.3%; mortality [31]: 53.3%; mortality [32]: 56.7%
4 | CC(C)=CCCC(C)CCO (stereo not given) [CITRONELLOL] | 26.7 | 23.3 | 13.3 | 3.3 | 0 | 23.3 | 26.7 | 46.7 | 0 | 0 | 50 | 3.3 | 50 | 16.7 | 40 | 0 | 20 | 16.7 | 6.7 | 6.7 | mortality [21]: 20%; mortality [22]: 0%; mortality [23]: 20%; mortality [24]: 13.3%; mortality [25]: 3.3%; mortality [26]: 13.3%; mortality [27]: 6.7%; mortality [28]: 13.3%; mortality [29]: 16.7%; mortality [30]: 46.7%; mortality [31]: 40%; mortality [32]: 26.7%
5 | C=C(C)[C@@H]1CC[C@@H](C)C(=O)C1 [DIHYDROCARVONE] | 23.3 | 86.7 | 53.3 | 46.7 | 26.7 | 16.7 | 100 | 33.3 | 0 | 63.3 | 83.3 | 50 | 40 | 76.7 | 33.3 | 23.3 | 16.7 | 36.7 | 23.3 | 0 | mortality [21]: 0%; mortality [22]: 80%; mortality [23]: 83.3%; mortality [24]: 30%; mortality [25]: 16.7%; mortality [26]: 63.3%; mortality [27]: 60%; mortality [28]: 6.7%; mortality [29]: 70%; mortality [30]: 76.7%; mortality [31]: 63.3%; mortality [32]: 80%

Reference: ChEMBL document CHEMBL3046407, “Toxicity of monoterpenes against larvae and adults of Colorado potato beetle, Leptinotarsa decemlineata Say (Coleoptera: Chrysomelidae)” (2007)
